“Also recorded” adds a separate entry of the source.
Tests used:
[1] = Stability of crystalline patterns on drying (XRPD); format: physicochemical; conditions: for XRPD after drying on the benchtop: 2 days
Description: Samples of amorphous Compound 1 (either 30 mg/mL or 60 mg/mL) were dissolved in DCM and were allowed to evaporate either at room temperature or 45° C. After stirring for about 40 min, the resulting slurries were filtered and analyzed by XRPD. Pattern B was obtained for the wet cakes of recovered solids. Pattern B changed to C after drying under static vacuum at 50° C. overnight.
In a separate experiment, about 71 mg of amorphous Compound 1 was weighed into a 4 mL vial and 10 vol. (710 μL) of DCM was added at room temperature. After stirring for 5 min, a thin slurry formed. XRPD analysis of a sample taken from the slurry after 1 h confirmed Pattern B. The vial was then transferred to a fridge at 5° C. for ˜3 h and then to a freezer at −20° C. overnight. Small amount of solid settled to the bottom of the vial after cooling at −20° C., the yield was very low, about 6% w/w. XRPD confirmed Pattern B. Pattern B was left to dry on the benchtop at room temperature for 2 days. XRPD analysis on the sample after 2 days confirmed that Pattern B was stable. Thermal analysis on a small sample (0.7 mg) of Pattern B was performed by DSC.
A sample of 48.9 mg of amorphous Compound 1 and 3 vol. (˜150 μL) of MIBK:heptane was prepared at 45° C. A small amount of gummy solid formed after addition of the solvent system. The vial was vortexed and sonicated few times to break the gum and a thin slurry was obtained after 5 min of stirring. The sample was left to stir at 45° C. for about 5 h and then transferred to a stir plate at room temperature. After stirring overnight at room temperature, the sample was filtered and the solid was collected for XRPD analysis. The yield was low, ˜7% w/w.
Thermal analysis on a small sample of Pattern D was performed by DSC.

[2] = Thermal stability of crystalline Pattern A (DSC cycling, then XRPD); format: physicochemical
Description: Two samples of Crystalline Pattern A were prepared and cycled in the DSC and then analyzed by XRPD.
The first sample of Pattern A (9.4 mg) was heated from 30° C. to 150° C. and then cooled back to 30° C.
The second sample of Pattern A (14.4 mg) was heated from 30° C. to 118° C. and then cooled back to 30° C. The sample recovered after the DSC experiment appeared as a light-amber pellet that was easily pressed into a powder on the XRPD plate.

[3] = Dry and solvent drop milling, XRPD after milling; format: physicochemical
Description: Dry and solvent drop milling was done using a small Wig-L-Bug ball mill with ¼″ stainless steel ball as milling media. About 25 mg of crystalline Pattern A of Compound 1 was weighed into a milling capsule and one volume of solvent (solvent drop) was added. The milling was carried out at 3,800 rpm in three steps of 30 s each. The solids were recovered after milling and analyzed by XRPD.

[4] = Dynamic Vapor Sorption (DVS); format: physicochemical
Description: Dynamic Vapor Sorption (DVS) was performed using a DVS Intrinsic 1. The sample (10-15 mg) was loaded into a sample pan, suspended from a microbalance and exposed to a humidified stream of nitrogen gas. The sample was held for a minimum of 5 min at each level and only progressed to the next humidity level if there was <0.002% change in weight between measurements (interval: 60 seconds) or 240 min had elapsed. The following program was used: • (1) Equilibration at 50% RH • (2) 50% to 2% (50%, 40%, 30%, 20%, 10% and 2%) • (3) 2% to 95% (2%, 10%, 20%, 30%, 40%, 50%, 60%, 70%, 80%, 90%, 95%) • (4) 95% to 2% (95%, 80%, 70%, 60%, 50%, 40%, 30%, 20%, 10%, 2%) • (5) 2% to 50% (2%, 10%, 20%, 30%, 40%, 50%)

[5] = Thermodynamic stability: one-week slurry stability of crystalline Pattern A (XRPD); format: physicochemical
Description: One-week slurry stability studies were performed on crystalline Pattern A in five solvents and solvent systems at room temperature (20-24° C.) and at 10° C. About 25 mg of Compound 1 was weighed into 2 mL vials and the solvent was added to each vial at room temperature with stirring. The solvents and solvent systems used in the experiments were: IPA:water (1:1 vol), THF:heptane (1:2 vol), ACN:heptane (1:2 vol), MIBK:heptane (1:2 vol), and IPAc.
For the IPA:water (1:1 vol) samples, 10 vol. of IPA:water (1:1 vol) was added, whereas 7 vol. were initially added for the other solvent systems. One set of vials was left to stir at room temperature and the other set was transferred to a cold stir plate at 10° C. After 5 days, samples that remained in solutions were seeded with Pattern A (0.5-1 mg) and left to stir for one week.

[6] = Stability of solid state forms on humidity exposure (static storage, XRPD re-analysis); format: physicochemical; conditions: 40° C./75% RH for 7 days
Description: Samples were assessed for stability under static storage conditions of 40° C./75% RH for 7 days. The samples were then re-analyzed by XRPD.

SSTR5 = SSTR5 (Homo sapiens, UniProt P35346); test: SSTR5 agonist potency; format: cell-based
SSTR2 = SSTR2 (Homo sapiens, UniProt P30874); test: Selectivity for SSTR5 over SSTR2; format: cell-based
Chain of SSTR2 (P30874 whole entry): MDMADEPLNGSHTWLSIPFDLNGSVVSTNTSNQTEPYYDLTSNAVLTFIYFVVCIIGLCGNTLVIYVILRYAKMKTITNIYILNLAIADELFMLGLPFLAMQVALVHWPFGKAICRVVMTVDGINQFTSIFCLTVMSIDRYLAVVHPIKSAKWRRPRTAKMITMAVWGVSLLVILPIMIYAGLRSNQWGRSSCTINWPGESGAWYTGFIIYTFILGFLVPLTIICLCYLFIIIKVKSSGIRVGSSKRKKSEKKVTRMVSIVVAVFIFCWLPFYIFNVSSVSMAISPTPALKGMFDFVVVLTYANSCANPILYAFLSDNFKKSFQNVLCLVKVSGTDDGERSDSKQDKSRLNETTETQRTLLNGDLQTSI

Chain of SSTR5 (P35346 whole entry): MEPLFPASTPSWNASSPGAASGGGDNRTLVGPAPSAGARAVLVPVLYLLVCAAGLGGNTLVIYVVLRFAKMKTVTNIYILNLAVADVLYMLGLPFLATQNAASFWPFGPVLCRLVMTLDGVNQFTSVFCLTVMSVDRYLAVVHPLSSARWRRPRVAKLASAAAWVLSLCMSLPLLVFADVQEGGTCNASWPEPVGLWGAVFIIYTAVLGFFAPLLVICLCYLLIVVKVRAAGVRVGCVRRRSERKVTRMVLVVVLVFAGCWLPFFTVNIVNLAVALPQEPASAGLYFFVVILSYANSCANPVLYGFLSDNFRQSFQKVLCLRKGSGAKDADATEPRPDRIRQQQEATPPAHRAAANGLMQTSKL

Q: With `C[C@H](NC(=O)c1cnc(C#N)c(-c2cc(F)cc(F)c2)c1N1CC[C@H](N)C1)C(F)(F)F` [Pattern B, 4-[(3S)-3-aminopyrrolidin-1-yl]-6-cyano-5-(3,5-difluorophenyl)-N-[(2S)-1,1,1-trifluoropropan-2-yl]pyridine-3-carboxamide] as the compound, how does the “XRPD after drying on the benchtop” value ([1]; room temperature) read?
A: stable

Q: And the “XRPD after drying under vacuum at 50° C.” value ([1]; vacuum, 50° C.)?
A: changed to C; also recorded: converted to Pattern C

Q: What does the source list for `C[C@H](NC(=O)c1cnc(C#N)c(-c2cc(F)cc(F)c2)c1N1CC[C@H](N)C1)C(F)(F)F` [Pattern A, 4-[(3S)-3-aminopyrrolidin-1-yl]-6-cyano-5-(3,5-difluorophenyl)-N-[(2S)-1,1,1-trifluoropropan-2-yl]pyridine-3-carboxamide]?
A: XRPD after DSC thermal cycling ([2]; heated from 30° C. to 118° C. and cooled back to 30° C.): stable after the DSC treatment; XRPD after DSC thermal cycling ([2]; heated from 30° C. to 150° C. and cooled back to 30° C.): amorphous pattern; crystallinity (XRPD) after dry milling ([3]; dry milling, 3,800 rpm, three steps of 30 s): lost after dry milling resulting in amorphous material; crystallinity (XRPD) after solvent milling ([3]; solvent drop milling in IPAc, water, and MIBK): remained stable; total mass change between 2 and 95% RH ([4]; DVS, 2 to 95% RH): 0.7%; mass gain from 20 to 75% RH ([4]; DVS, 20 to 75% RH): 0.37%; mass loss from 50 to 2% RH ([4]; DVS, 50 to 2% RH): 0.2%; XRPD pattern after DVS analysis ([4]; sample measured by DVS, 2-95% RH): unchanged after DVS analysis; XRPD pattern after one-week slurry ([5]; MIBK:heptane (1:2 vol) at 10° C.): Pattern B; XRPD pattern after one-week slurry ([5]; MIBK:heptane (1:2 vol) at room temperature): Pattern A+trace of a new pattern, Pattern D; XRPD pattern after one-week slurry ([5]; remaining six analysable samples: IPA:water (1:1), THF:heptane (1:2), IPAc, room temperature and 10° C.): Pattern A; XRPD after static storage [6]: no change in the XRPD

Q: With `C[C@H](NC(=O)c1cnc(C#N)c(-c2cc(F)cc(F)c2)c1N1CC[C@H](N)C1)C(F)(F)F` [Pattern D, 4-[(3S)-3-aminopyrrolidin-1-yl]-6-cyano-5-(3,5-difluorophenyl)-N-[(2S)-1,1,1-trifluoropropan-2-yl]pyridine-3-carboxamide] as the compound, how does the “XRPD after drying under active vacuum at room temperature” value ([1]; overnight, active vacuum, room temperature) read?
A: converted to C

Q: What about the “XRPD after drying on the benchtop” value ([1]; room temperature) of the same compound?
A: remained stable

Q: Which EC50 (SSTR5) does the source give for `C[C@H](NC(=O)c1cnc(C#N)c(-c2cc(F)cc(F)c2)c1N1CC[C@H](N)C1)C(F)(F)F` [Compound 1, 4-[(3S)-3-aminopyrrolidin-1-yl]-6-cyano-5-(3,5-difluorophenyl)-N-[(2S)-1,1,1-trifluoropropan-2-yl]pyridine-3-carboxamide] here?
A: < 1 nM

Q: And the “selectivity for SSTR5 over SSTR2” value (SSTR2)?
A: > 500 fold
